Data on 61 compounds can be found in patent US7446117B2, “Cox-2 inhibiting pyridine derivatives” (Glaxo Group Limited, priority 2002, dated 2008).

A word on the IC50: it is the concentration at which inhibition is half-maximal.

This experiment concerns the target T1, microsomal h-COX2 (Homo sapiens, UniProt P35354).
T1 construct: made in house; host or cells: baculovirus infected SF9 cells (microsomal preparation)
T1 sequence (P35354 18-604): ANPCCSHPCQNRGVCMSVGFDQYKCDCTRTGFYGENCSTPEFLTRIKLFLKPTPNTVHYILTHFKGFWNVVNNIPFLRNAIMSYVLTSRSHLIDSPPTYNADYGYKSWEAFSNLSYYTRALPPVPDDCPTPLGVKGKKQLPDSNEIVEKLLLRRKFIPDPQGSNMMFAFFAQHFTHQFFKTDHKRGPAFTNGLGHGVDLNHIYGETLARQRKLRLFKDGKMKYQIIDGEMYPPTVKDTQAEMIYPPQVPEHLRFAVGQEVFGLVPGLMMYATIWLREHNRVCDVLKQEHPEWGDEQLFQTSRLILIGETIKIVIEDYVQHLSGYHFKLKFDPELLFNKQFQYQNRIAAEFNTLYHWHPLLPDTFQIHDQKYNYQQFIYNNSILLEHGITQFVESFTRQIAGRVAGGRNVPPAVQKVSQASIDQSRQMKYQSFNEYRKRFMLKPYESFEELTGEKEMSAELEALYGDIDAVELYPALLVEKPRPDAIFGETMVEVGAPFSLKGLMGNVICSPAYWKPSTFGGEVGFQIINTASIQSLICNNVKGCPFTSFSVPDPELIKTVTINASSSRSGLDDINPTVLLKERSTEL
The experiment is described as follows: Microsomal assay: inhibitory activity against microsomal h-COX2. The experiment is classed as biochemical. The following applies: microsomal preparation from baculovirus infected SF9 cells; 1 hour incubation with compound; 0.1 μM arachidonic acid, 10 minutes; PGE2 by EIA; read-out: IC50 values for inhibition of COX-2. As to the method: Biological Data Microsomal Assay
Inhibitory activity against microsomal h-COX2 was assessed against a microsomal preparation from baculovirus infected SF9 cells. An aliquot of microsomal preparation was thawed slowly on ice and a 1/40,000 dilution prepared from it into the assay buffer (sterile water, degassed with argon containing 100 mM HEPES (pH 7.4), 10 mM EDTA (pH7.4), 1 mM phenol, 1 mM reduced glutathione, 20 mg/ml gelatin and 0.001 mM Hematin). Once diluted the enzyme solution was then sonicated for 5 seconds (Branson sonicator, setting 4, 1 cm tip) to ensure a homogeneous suspension. 155 μl enzyme solution was then added to each well of a 96-well microtitre plate containing either 5 μl test compound (40× required test concentration) or 5 μl DMSO for controls. Plates were then mixed and incubated at room temperature for 1 hour. Following the incubation period, 40 μl of 0.5 μM arachidonic acid was added to each well to give a final concentration of 0.1 μM. Plates were then mixed and incubated for exactly 10 minutes (room temperature) prior to addition of 25 μl 1M HCl (hydrochloric acid) to each well to stop the reaction. 25 μl of 1M NaOH (sodium hydroxide) was then added to each well to neutralise the solution prior to determination of PGE2 levels by enzyme immunoassay (EIA).
Turning to `Cc1cc(NC2CCCC2)nc(-c2ccc(S(C)(=O)=O)cc2)c1` [Example 1, N-Cyclopentyl-4-methyl-6-[4-(methylsulfonyl)phenyl]pyridine-2-amine], the IC50 was no more than 500 nM. The same measure for `Cc1cc(OCc2ccccc2)nc(-c2ccc(S(C)(=O)=O)cc2)c1` [Example 2, 2-Benzyloxy-4-methyl-6-[4-(methylsulfonyl)phenyl]pyridine]: no more than 500 nM. As to `Cc1cc(-c2ccc(S(C)(=O)=O)cc2)nc(N(C)Cc2ccccc2)c1` [Example 3, N-Benzyl-N-methyl-4-methyl-6-[4-(methylsulfonyl)phenyl]pyridine-2-amine], the 50% inhibitory concentration (IC50) is no more than 500 nM. The same measure for `Cc1cc(NCc2ccc(Cl)cc2)nc(-c2ccc(S(C)(=O)=O)cc2)c1` [Example 4]: no more than 500 nM; for `CN(Cc1ccccc1)c1cc(C(F)(F)F)cc(-c2ccc(S(C)(=O)=O)cc2)n1` [Example 5]: no more than 500 nM; for `CS(=O)(=O)c1ccc(-c2cc(C(F)(F)F)cc(NCc3ccco3)n2)cc1` [Example 6]: no more than 500 nM. For `Cc1cc(NCc2ccccc2)nc(-c2ccc(S(C)(=O)=O)cc2)c1` [Example 7], the IC50 was no more than 500 nM. Consider `CS(=O)(=O)c1ccc(-c2cc(C(F)(F)F)cc(NCC3CCCCC3)n2)cc1` [Example 8], for which the IC50 is no more than 500 nM. As to `COc1ccc(Nc2cc(C)cc(-c3ccc(S(C)(=O)=O)cc3)n2)cc1` [Example 9], the IC50 is no more than 500 nM. `Cc1cc(OCC(C)C)nc(-c2ccc(S(C)(=O)=O)cc2)c1` [Example 10]: the IC50 was no more than 500 nM. The same measure for `Cc1cc(Oc2cccnc2)nc(-c2ccc(S(C)(=O)=O)cc2)c1` [Example 11]: no more than 500 nM; for `C=CCNc1cc(C(F)(F)F)cc(-c2ccc(S(C)(=O)=O)cc2)n1` [Example 12]: no more than 500 nM; for `Cc1cc(Nc2ccccc2Cl)nc(-c2ccc(S(C)(=O)=O)cc2)c1` [Example 13]: no more than 500 nM. With `Cc1cc(NCc2cc(F)cc(F)c2)nc(-c2ccc(S(C)(=O)=O)cc2)c1` [Example 14], the IC50 was no more than 500 nM.

With `Cc1cc(NCc2cccnc2)nc(-c2ccc(S(C)(=O)=O)cc2)c1` [Example 15], the 50% inhibitory concentration (IC50) was no more than 500 nM. The same measure for `COc1ccc(Nc2cc(C(F)(F)F)cc(-c3ccc(S(C)(=O)=O)cc3)n2)cc1` [Example 16]: no more than 500 nM; for `Cc1cc(NC2CCCCC2)nc(-c2ccc(S(C)(=O)=O)cc2)c1` [Example 17]: no more than 500 nM. The same measure for `CCCCNc1cc(C(F)(F)F)cc(-c2ccc(S(C)(=O)=O)cc2)n1` [Example 18]: no more than 500 nM; for `CC(C)CNc1cc(C(F)(F)F)cc(-c2ccc(S(C)(=O)=O)cc2)n1` [Example 19]: no more than 500 nM. The same measure for `COc1ccc(CNc2cc(C)cc(-c3ccc(S(C)(=O)=O)cc3)n2)cc1` [Example 20]: no more than 500 nM; for `Cc1cc(NCc2ccc(F)cc2)nc(-c2ccc(S(C)(=O)=O)cc2)c1` [Example 21]: no more than 500 nM; for `Cc1ccc(CNc2cc(C(F)(F)F)cc(-c3ccc(S(C)(=O)=O)cc3)n2)o1` [Example 22]: no more than 500 nM. On to `CCCCNc1cc(C)cc(-c2ccc(S(C)(=O)=O)cc2)n1` [Example 23], for which the half-inhibitory concentration (IC50) was no more than 500 nM. The same measure for `Cc1cc(NCc2ccco2)nc(-c2ccc(S(C)(=O)=O)cc2)c1` [Example 24]: no more than 500 nM. The same measure for `Cc1ccc(CNc2cc(C)cc(-c3ccc(S(C)(=O)=O)cc3)n2)cc1` [Example 25]: no more than 500 nM. The same measure for `CS(=O)(=O)c1ccc(-c2cc(C(F)(F)F)cc(NC3CCCC3)n2)cc1` [Example 26]: no more than 500 nM. Consider `Cc1cc(NCc2ccncc2)nc(-c2ccc(S(C)(=O)=O)cc2)c1` [Example 27], for which the half-inhibitory concentration (IC50) is no more than 500 nM. The same measure for `Cc1cc(NCc2ccccn2)nc(-c2ccc(S(C)(=O)=O)cc2)c1` [Example 28]: no more than 500 nM; for `CCOc1ccc(CNc2cc(C)cc(-c3ccc(S(C)(=O)=O)cc3)n2)cc1` [Example 30]: no more than 500 nM.

As for `Cc1cc(NCC(C)C)nc(-c2ccc(S(C)(=O)=O)cc2)c1` [Example 31], the 50% inhibitory concentration (IC50) is no more than 500 nM. As to `Cc1cc(Nc2ccc(F)cc2)nc(-c2ccc(S(C)(=O)=O)cc2)c1` [Example 43], the IC50 was no more than 500 nM.

As for `Cc1cc(NCc2cccs2)nc(-c2ccc(S(C)(=O)=O)cc2)c1` [Example 44], the IC50 is no more than 500 nM. Take `CCc1cc(-c2ccc(S(C)(=O)=O)cc2)nc(N(C)Cc2ccccc2)c1` [Example 45]: the IC50 is no more than 500 nM.

As to `CCc1cc(NCC2CCOCC2)nc(-c2ccc(S(C)(=O)=O)cc2)c1` [Example 46], the IC50 was no more than 500 nM. The same measure for `CCc1cc(NCC(C)C)nc(-c2ccc(S(C)(=O)=O)cc2)c1` [Example 47]: no more than 500 nM; for `Cc1ccc(CNc2cc(C(F)(F)F)cc(-c3ccc(S(C)(=O)=O)cc3)n2)cc1` [Example 48]: no more than 500 nM. The same measure for `Cc1ccccc1CNc1cc(C(F)(F)F)cc(-c2ccc(S(C)(=O)=O)cc2)n1` [Example 49]: no more than 500 nM; for `CS(=O)(=O)c1ccc(-c2cc(C(F)(F)F)cc(NCc3ccccc3Cl)n2)cc1` [Example 50]: no more than 500 nM; for `Cc1cnc(CNc2cc(C(F)(F)F)cc(-c3ccc(S(C)(=O)=O)cc3)n2)cn1` [Example 51]: no more than 500 nM. The same measure for `C[C@H](Nc1cc(C(F)(F)F)cc(-c2ccc(S(C)(=O)=O)cc2)n1)c1ccccc1` [Example 52]: no more than 500 nM; for `C[C@@H](Nc1cc(C(F)(F)F)cc(-c2ccc(S(C)(=O)=O)cc2)n1)c1ccccc1` [Example 53]: no more than 500 nM. For the compound `CS(=O)(=O)c1ccc(-c2cc(C(F)(F)F)cc(NC3CCCCC3)n2)cc1` [Example 54, N-cyclohexyl-4-(trifluoromethyl)-6-[4-(methylsulfonyl)phenyl]pyridine-2-amine], the IC50 is no more than 500 nM. For `COc1ccc(CNc2cc(C(F)(F)F)cc(-c3ccc(S(C)(=O)=O)cc3)n2)cc1` [Example 55], the IC50 was no more than 500 nM. On to `Cc1cc(Nc2ccc(C)nc2)nc(-c2ccc(S(C)(=O)=O)cc2)c1` [Example 56], for which the IC50 is no more than 500 nM. For the compound `Cc1ccc(-c2ccc(S(C)(=O)=O)cc2)nc1NCc1ccccc1` [Example 57], the IC50 was no more than 500 nM. The same measure for `Cc1cc(-c2ccc(S(C)(=O)=O)cc2)nc(N(C)Cc2ccccc2)c1C` [Example 58]: no more than 500 nM; for `Cc1cc(-c2ccc(S(C)(=O)=O)cc2)nc(NCc2ccccc2)c1C` [Example 59]: no more than 500 nM; for `Cc1cc(-c2ccc(S(C)(=O)=O)cc2)nc(NCC(C)C)c1C` [Example 60]: no more than 500 nM. The same measure for `CN(Cc1ccccc1)c1cccc(-c2ccc(S(C)(=O)=O)cc2)n1` [Example 61]: no more than 500 nM; for `Cc1cc(-c2ccc(S(C)(=O)=O)cn2)nc(N(C)Cc2ccccc2)c1` [Example 62]: no more than 500 nM; for `Cc1cc(-c2ccc(S(C)(=O)=O)cc2)nc(N2CCCCC2)c1C` [Example 66]: no more than 500 nM. The same measure for `Cc1cc(NCc2ccccc2)nc(-c2ccc(S(C)(=O)=O)c(F)c2)c1` [Example 67]: no more than 500 nM. Regarding `Cc1cc(-c2ccc(S(C)(=O)=O)cc2)nc(N(C)Cc2cccc(C)n2)c1` [Example 68], the IC50 was no more than 500 nM. The same measure for `CCc1cc(NCc2ccco2)nc(-c2ccc(S(C)(=O)=O)cc2)c1` [Example 69]: no more than 500 nM; for `COc1ccc(Nc2cc(C)cc(-c3ccc(S(C)(=O)=O)cn3)n2)cc1` [Example 70]: no more than 500 nM; for `CCC(CC)Nc1cc(C)cc(-c2ccc(S(C)(=O)=O)cc2)n1` [Example 74]: no more than 500 nM. The same measure for `CS(=O)(=O)c1ccc(-c2cccc(NCc3ccccc3)n2)cc1` [Example 75]: no more than 500 nM; for `Cc1cc(NCc2ncc[nH]2)nc(-c2ccc(S(C)(=O)=O)cc2)c1` [Example 76]: no more than 500 nM; for `Cc1cc(NCc2nccn2C)nc(-c2ccc(S(C)(=O)=O)cc2)c1` [Example 80]: no more than 500 nM. The same measure for `Cc1cc(NCc2c[nH]nc2C)nc(-c2ccc(S(C)(=O)=O)cc2)c1` [Example 81]: no more than 500 nM; for `Cc1cc(NCc2ccn(C)n2)nc(-c2ccc(S(C)(=O)=O)cc2)c1` [Example 82]: no more than 500 nM.
